Test results taken from ChEMBL document CHEMBL1201862, “PubChem BioAssay data set” (2004).
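Protocol summary: plate cells (96-well), add compound at 5 concentrations, incubate 48 h, interpolate endpoints linearly. The concentration for 50% growth inhibition is given as GI50.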 Active and inactive are the calls of the source. No stated cut-off is given here; in the data, active = GI50 up to about 1.1 µM and inactive = higher.

Columns and labels:
Test in all cases: growth of human tumour cells (NCI), 48 h
M19-MEL = tested on: M19-MEL
DLD-1 = tested on: DLD-1
RXF 631 = tested on: RXF 631
SNB-78 = tested on: SNB-78
LXFL 529 = tested on: LXFL 529
XF498 = tested on: XF498
DMS-273 = tested on: DMS-273
DMS-114 = tested on: DMS-114
HOP-18 = tested on: HOP-18

SMILES	GI50 (M19-MEL)	GI50 (DLD-1)	GI50 (RXF 631)	GI50 (SNB-78)	GI50 (LXFL 529)	GI50 (XF498)	GI50 (DMS-273)	GI50 (DMS-114)	GI50 (HOP-18)
C(=N\Nc1ccccc1)/c1nc2ccccc2nc1/C=N/Nc1ccccc1	20.7 µM (inactive)	11.3 µM (inactive)	13.6 µM (inactive)	20.7 µM (inactive)	11 µM (inactive)	–	–	–	–
COc1ccc(C[C@@H]2Cc3cc(OC)c(OC)cc3CN2C)cc1	–	> 100 µM (inactive)	–	> 100 µM (inactive)	> 100 µM (inactive)	53.5 µM (inactive)	–	–	–
CN(C)c1ccc(-c2cc(O)c3cc4c(cc3n2)OCO4)cc1	> 100 µM (inactive)	> 100 µM (inactive)	> 100 µM (inactive)	–	> 100 µM (inactive)	> 100 µM (inactive)	> 100 µM (inactive)	> 100 µM (inactive)	–
C=CCC1(CC)C(=O)NC(=O)NC1=O [ETALLOBARBITAL]	> 100 µM (inactive)	–	–	> 100 µM (inactive)	> 100 µM (inactive)	–	> 100 µM (inactive)	–	–
COc1cc(OC)c(C2CC=Cc3c(OC)cc(OC)c(OC)c32)cc1OC (stereo unspecified)	> 100 µM (inactive)	> 100 µM (inactive)	–	> 100 µM (inactive)	> 100 µM (inactive)	> 100 µM (inactive)	> 100 µM (inactive)	> 100 µM (inactive)	> 100 µM (inactive)
CCCCC1(C)C=C/C(=C2/C(=O)O/C(=C\C(=O)O)C2=O)O1 (stereo unspecified)	> 100 µM (inactive)	–	> 100 µM (inactive)	> 100 µM (inactive)	> 100 µM (inactive)	> 100 µM (inactive)	> 100 µM (inactive)	–	> 100 µM (inactive)
CCOC(=O)/C(C#N)=C\C=C1/C=CN=C2NCCN21	> 100 µM (inactive)	> 100 µM (inactive)	–	> 100 µM (inactive)	> 100 µM (inactive)	> 100 µM (inactive)	> 100 µM (inactive)	> 100 µM (inactive)	> 100 µM (inactive)
CCOP(=O)(Cc1ccc(CP(=O)(OCC)OCC)n1C)OCC	> 100 µM (inactive)	> 100 µM (inactive)	> 100 µM (inactive)	–	> 100 µM (inactive)	–	> 100 µM (inactive)	> 100 µM (inactive)	75 µM (inactive)
Cc1cccc(N2C(=O)C(=O)C(c3nc4ccccc4s3)/C(=N/NC(=S)NN)C2=O)c1C (stereo unspecified)	> 100 µM (inactive)	–	> 100 µM (inactive)	> 100 µM (inactive)	> 100 µM (inactive)	> 100 µM (inactive)	> 100 µM (inactive)	> 100 µM (inactive)	–
O=[N+]([O-])c1cccc(C2ON2C2CCCCC2)c1 (stereo unspecified)	19.6 µM (inactive)	12 µM (inactive)	–	27.4 µM (inactive)	20.7 µM (inactive)	–	18.4 µM (inactive)	19.1 µM (inactive)	30.8 µM (inactive)
COc1c(C(=O)c2ccc([N+](=O)[O-])cc2)cc(C(C)(C)C)cc1C(C)(C)C	30.1 µM (inactive)	54 µM (inactive)	–	46.6 µM (inactive)	31.6 µM (inactive)	22.2 µM (inactive)	30.2 µM (inactive)	22.1 µM (inactive)	> 100 µM (inactive)
Cc1cccc(C)c1CO	> 100 µM (inactive)	> 100 µM (inactive)	> 100 µM (inactive)	> 100 µM (inactive)	> 100 µM (inactive)	> 100 µM (inactive)	> 100 µM (inactive)	> 100 µM (inactive)	–
Cc1ccc(C2=CC(=O)c3ccccc3C2=O)n1-c1ccccc1	> 100 µM (inactive)	> 100 µM (inactive)	–	> 100 µM (inactive)	72.4 µM (inactive)	48.1 µM (inactive)	> 100 µM (inactive)	24.6 µM (inactive)	> 100 µM (inactive)
O=c1c2cc(Br)ccc2nc(-c2ccccc2Cl)n1NCC1(O)OCC(O)C(O)C1O (stereo unspecified)	> 100 µM (inactive)	–	–	> 100 µM (inactive)	82.8 µM (inactive)	–	> 100 µM (inactive)	75.9 µM (inactive)	–
CN(C)c1ccc2c(NCCCCCCNc3ccnc4cc(N(C)C)ccc34)ccnc2c1	13.7 µM (inactive)	43.7 µM (inactive)	51.4 µM (inactive)	4.79 µM (inactive)	–	2.79 µM (inactive)	4.03 µM (inactive)	6.75 µM (inactive)	–
CCCCCC/C(CC(=O)CCC(=O)NCCc1ccccc1)=N\Nc1ccc([N+](=O)[O-])cc1[N+](=O)[O-]	54.5 µM (inactive)	63.7 µM (inactive)	64.6 µM (inactive)	> 100 µM (inactive)	49.3 µM (inactive)	–	> 100 µM (inactive)	20 µM (inactive)	59.8 µM (inactive)
N#Cc1ccccc1NC(=O)C(=O)C(C(=O)c1ccncc1)C1OC(=O)c2ccccc21 (stereo unspecified)	> 100 µM (inactive)	> 100 µM (inactive)	> 100 µM (inactive)	> 100 µM (inactive)	> 100 µM (inactive)	> 100 µM (inactive)	–	> 100 µM (inactive)	> 100 µM (inactive)
CC(C)(C)[Si](C)(C)O/N=C\c1ccc(O[Si](C)(C)C(C)(C)C)cc1	41.3 µM (inactive)	> 100 µM (inactive)	24 µM (inactive)	> 100 µM (inactive)	84.9 µM (inactive)	31.8 µM (inactive)	> 100 µM (inactive)	25.9 µM (inactive)	> 100 µM (inactive)
COc1cc(C2C(C(=O)Nc3ccccc3)=C(C)NC(C)=C2C(=O)Nc2ccccc2)ccc1O	36.2 µM (inactive)	29.1 µM (inactive)	–	53.5 µM (inactive)	24.3 µM (inactive)	34.2 µM (inactive)	–	42 µM (inactive)	99.3 µM (inactive)
COC1=CC(C2c3cc4c(cc3[C@@H](Nc3ccc(F)cc3)C3COC(=O)[C@H]23)OCO4)=CC(=O)C1=O (stereo partly specified)	15.4 µM (inactive)	26.2 µM (inactive)	–	> 51.9 µM (inactive)	11.6 µM (inactive)	5.98 µM (inactive)	2.93 µM (inactive)	–	–
COc1cc(OC(=O)c2ccccc2)cc2c1C(=O)C=CC2=O	11 µM (inactive)	15.4 µM (inactive)	20 µM (inactive)	20.5 µM (inactive)	12.7 µM (inactive)	17.6 µM (inactive)	21.8 µM (inactive)	10.9 µM (inactive)	16.6 µM (inactive)
O=C(O)c1ccc([I+]c2ccccc2)cc1	> 100 µM (inactive)	> 100 µM (inactive)	> 100 µM (inactive)	> 100 µM (inactive)	> 100 µM (inactive)	> 100 µM (inactive)	> 100 µM (inactive)	> 100 µM (inactive)	> 100 µM (inactive)
CC(/C(=N/NC(=O)C(N)=O)c1c(Cl)ccc(Cl)c1O)C1(O)C(=O)Nc2ccccc21 (stereo unspecified)	40.4 µM (inactive)	35.3 µM (inactive)	32.1 µM (inactive)	> 100 µM (inactive)	32.9 µM (inactive)	–	27.4 µM (inactive)	34.4 µM (inactive)	34.8 µM (inactive)
OCc1c[te]c(-c2ccccc2)c1	33.9 µM (inactive)	37.2 µM (inactive)	55.6 µM (inactive)	> 100 µM (inactive)	> 100 µM (inactive)	0.56 µM (active)	51.4 µM (inactive)	26.8 µM (inactive)	–
CCOc1ccc(/N=N/c2ccc3oc(=O)c(/C(C)=N/NC(=O)CC(=O)Nc4cccc(OC)c4)cc3c2)cc1	23.8 µM (inactive)	13.8 µM (inactive)	–	23.6 µM (inactive)	11 µM (inactive)	17.5 µM (inactive)	24.8 µM (inactive)	14.3 µM (inactive)	17.1 µM (inactive)
O=S(=O)(OI(OI(OS(=O)(=O)C(F)(F)F)c1ccccc1)c1ccccc1)C(F)(F)F	40.7 µM (inactive)	58.9 µM (inactive)	–	50.6 µM (inactive)	26.1 µM (inactive)	–	23.7 µM (inactive)	5.18 µM (inactive)	–
